Biological target: T1, human GLUT1 (Homo sapiens, UniProt P11166)
T1 construct: expressed in transfected cells
T1 sequence (P11166 1-492): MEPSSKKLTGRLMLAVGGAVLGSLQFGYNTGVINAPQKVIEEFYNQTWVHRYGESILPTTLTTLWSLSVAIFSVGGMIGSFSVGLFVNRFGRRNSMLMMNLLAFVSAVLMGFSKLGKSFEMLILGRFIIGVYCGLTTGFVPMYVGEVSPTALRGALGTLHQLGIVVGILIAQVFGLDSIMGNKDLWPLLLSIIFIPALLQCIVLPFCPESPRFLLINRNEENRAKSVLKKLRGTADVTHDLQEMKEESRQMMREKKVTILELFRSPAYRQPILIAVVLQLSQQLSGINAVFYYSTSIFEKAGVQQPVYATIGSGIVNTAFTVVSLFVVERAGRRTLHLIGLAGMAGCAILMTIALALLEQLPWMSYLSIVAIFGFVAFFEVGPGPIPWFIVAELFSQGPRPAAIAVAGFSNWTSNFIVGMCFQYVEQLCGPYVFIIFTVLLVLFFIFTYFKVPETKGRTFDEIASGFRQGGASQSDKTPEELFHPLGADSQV
Assay: [3H]-deoxy-D-glucose uptake assay, GLUT1
Type: cell-based
Settings: [3H]-deoxy-D-glucose uptake in HEK293 cells stably expressing human GLUT1
Protocol: HEK293 cells were engineered to stably express either human GLUT1, GLUT2, GLUt3 or GLUT4 by transfection with the pReceiver-Lv105 plasmid, containing either hGLUT1, hGLUT2, hGLUT3, or hGLUT4 gene constructs with lipofectamine 2000, hGLUT1- hGLUT2- hGLUT3- or hGLUT4-overexpressing polyclonal populations were isolated under purinomycin selective pressure (1 μg/ml) and maintained in Dulbecco's modified Eagle's medium supplemented with 1 μg/ml purinomycin+10% foetal bovine serum (FBS).
60,000 cells per well were seeded overnight into poly-D-lysine coasted 96-well plates. […] 90 μl of test compounds were added in glucose-free uptake buffer and cells were incubated at 37° C. for 30 min.
Cells were then washed twice with ice-cold PBS and 100 μl of Microscint-20 was added per well. Glucose uptake was quantified with a scintillation counter. The half maximal inhibitory concentration (IC50) (a measure of the effectiveness of the test compound in inhibiting glucose uptake) was determined.

SMILES	GLUT1 pIC50
COc1ccc(NC(=O)N2CCN(Cc3c(-c4ccc(Cl)cc4)nc4ccc(-c5ccccc5)cn34)CC2)cc1 [Compound 68]	+ (pIC50 4.00-4.99)
Cc1ccc(C(=O)N2CCN(Cc3c(-c4ccc(Cl)cc4)nc4ccc(-c5ccccc5)cn34)CC2)cc1 [Compound 69]	+++ (pIC50 ≧ 6.00)
COc1ccc(C(=O)N2CCN(Cc3c(-c4ccc(F)cc4)nc4ccc(-c5ccccc5)cn34)CC2)cc1 [Compound 70]	+++ (pIC50 ≧ 6.00)
COc1cccc(-c2nc3ccc(-c4ccccc4)cn3c2CN2CCN(C(=O)c3ccccc3F)CC2)c1 [Compound 71]	+++ (pIC50 ≧ 6.00)
c1ccc(-c2ccc3nc(-c4ccncc4)c(CN4CCOCC4)n3c2)cc1 [Compound 72]	+− (pIC50 < 4.00)
COCc1c(-c2ccc(Cl)cc2)nc2ccc(-c3ccccc3)cn12 [Compound 73]	+ (pIC50 4.00-4.99)
Clc1ccc(-c2nc3cnc(-c4ccccc4)cn3c2CN2CCOCC2)cc1 [Compound 75]	+++ (pIC50 ≧ 6.00)
Fc1ccc(-c2nc3ccc(-c4ccccc4)cn3c2CN2CCOCC2)cc1 [Compound 76]	+ (pIC50 4.00-4.99)
Clc1ccc(-c2nc3ncc(-c4ccccc4)cn3c2CN2CCOCC2)cc1 [Compound 77]	+− (pIC50 < 4.00)
CCNC(=O)c1nc2ccc(-c3ccccc3)cn2c1CN1CCOCC1 [Compound 78]	+− (pIC50 < 4.00)
Fc1cccc(-c2ccc3nc(-c4ccc(Cl)cc4)c(CN4CCOCC4)n3c2)c1 [Compound 81]	+ (pIC50 4.00-4.99)
Clc1ccc(-c2nc3ccc(-c4ccncc4)cn3c2CN2CCOCC2)cc1 [Compound 82]	++ (pIC50 5.00-5.99)
Clc1ccc(-c2nc3ccc(-c4cccnc4)cn3c2CN2CCOCC2)cc1 [Compound 83]	++ (pIC50 5.00-5.99)
COc1cccc(-c2ccc3nc(-c4ccc(Cl)cc4)c(CN4CCOCC4)n3c2)c1 [Compound 84]	++ (pIC50 5.00-5.99)
COc1ccccc1-c1ccc2nc(-c3ccc(Cl)cc3)c(CN3CCOCC3)n2c1 [Compound 85]	++ (pIC50 5.00-5.99)
COc1ccc(-c2ccc3nc(-c4ccc(Cl)cc4)c(CN4CCOCC4)n3c2)cc1 [Compound 86]	+ (pIC50 4.00-4.99)
Clc1ccc(-c2nc3ccc(C4CC4)cn3c2CN2CCOCC2)cc1 [Compound 87]	++ (pIC50 5.00-5.99)
CC(C)(C)OC(=O)N1CCN(Cc2c(-c3ccc(Cl)cc3)nc3ccc(-c4ccccc4)cn23)CC1 [Compound 88]	+− (pIC50 < 4.00)
Clc1ccc(-c2nc3ccc(-c4ccccc4)cn3c2CN2CCNCC2)cc1 [Compound 89]	+ (pIC50 4.00-4.99)
O=S(=O)(c1cccc(F)c1)N1CCN(Cc2c(-c3ccc(Cl)cc3)nc3ccc(-c4ccccc4)cn23)CC1 [Compound 90]	+− (pIC50 < 4.00)
N#Cc1cccc(-c2ccc3nc(-c4ccc(Cl)cc4)c(CN4CCOCC4)n3c2)c1 [Compound 92]	+− (pIC50 < 4.00)

SMILES	GLUT1 pIC50
NC(=O)c1ccccc1-c1ccc2nc(-c3ccc(Cl)cc3)c(CN3CCOCC3)n2c1 [Compound 94]	+ (pIC50 4.00-4.99)
NC(=O)c1ccc(-c2ccc3nc(-c4ccc(Cl)cc4)c(CN4CCOCC4)n3c2)cc1 [Compound 95]	+ (pIC50 4.00-4.99)
CN(C)Cc1c(-c2ccc(Cl)cc2)nc2ccc(-c3ccccc3)cn12 [Compound 97]	+ (pIC50 4.00-4.99)
Clc1ccc(-c2nc3ccc(-c4ccccc4)cn3c2CN2CCCCC2)cc1 [Compound 98]	+ (pIC50 4.00-4.99)
N#Cc1cccc(-c2nc3ccc(-c4ccccc4)cn3c2CN2CCOCC2)c1 [Compound 100]	+ (pIC50 4.00-4.99)
COc1ccc(-c2nc3ccc(-c4ccccc4)cn3c2CN2CCOCC2)cc1 [Compound 101]	++ (pIC50 5.00-5.99)
COc1cccc(-c2nc3ccc(-c4ccccc4)cn3c2CN2CCOCC2)c1 [Compound 102]	++ (pIC50 5.00-5.99)
c1ccc(-c2ccc3nc(-c4ccccc4)c(CN4CCOCC4)n3c2)cc1 [Compound 103]	+ (pIC50 4.00-4.99)
COc1ccccc1-c1nc2ccc(-c3ccccc3)cn2c1CN1CCOCC1 [Compound 104]	+ (pIC50 4.00-4.99)
Clc1ccccc1-c1nc2ccc(-c3ccccc3)cn2c1CN1CCOCC1 [Compound 105]	++ (pIC50 5.00-5.99)
N#Cc1ccc(-c2nc3ccc(-c4ccccc4)cn3c2CN2CCOCC2)cc1 [Compound 106]	+− (pIC50 < 4.00)
Clc1cccc(-c2nc3ccc(-c4ccccc4)cn3c2CN2CCOCC2)c1 [Compound 107]	++ (pIC50 5.00-5.99)
NC(=O)c1ccc(-c2nc3ccc(-c4ccccc4)cn3c2CN2CCOCC2)cc1 [Compound 109]	+− (pIC50 < 4.00)
Clc1ccc(-c2nc3ccc(-c4cncnc4)cn3c2CN2CCOCC2)cc1 [Compound 110]	+ (pIC50 4.00-4.99)
FC(F)(F)c1ccc(-c2nc3ccc(-c4ccccc4)cn3c2CN2CCOCC2)cc1 [Compound 112]	++ (pIC50 5.00-5.99)
Cc1ccccc1-c1ccc2nc(-c3ccc(Cl)cc3)c(CN3CCOCC3)n2c1 [Compound 115]	+++ (pIC50 ≧ 6.00)
CCN(CC)C(=O)c1ccc2nc(-c3ccc(Cl)cc3)c(CN3CCOCC3)n2c1 [Compound 117]	+ (pIC50 4.00-4.99)
CCNC(=O)c1ccc2nc(-c3ccc(Cl)cc3)c(CN3CCOCC3)n2c1 [Compound 118]	+ (pIC50 4.00-4.99)
Clc1ccc(-c2nc3ccc(-c4cccs4)cn3c2CN2CCOCC2)cc1 [Compound 119]	++ (pIC50 5.00-5.99)
Clc1ccc(-c2nc3ccc(-c4ccccn4)cn3c2CN2CCOCC2)cc1 [Compound 120]	++ (pIC50 5.00-5.99)
CCNC(=O)c1cccc2nc(-c3ccc(Cl)cc3)c(CN3CCOCC3)n12 [Compound 121]	+− (pIC50 < 4.00)

SMILES	GLUT1 pIC50
Clc1ccc(-c2nc3ccc(N4CCOCC4)cn3c2CN2CCOCC2)cc1 [Compound 122]	++ (pIC50 5.00-5.99)
Clc1ccc(-c2nc3ccc(Br)cn3c2CN2CCOCC2)cc1 [Compound 124]	+ (pIC50 4.00-4.99)
CN1CCN(Cc2c(-c3ccc(Cl)cc3)nc3ccc(-c4ccccc4)cn23)CC1 [Compound 125]	+ (pIC50 4.00-4.99)
COc1ccccc1C(=O)N1CCN(Cc2c(-c3ccc(Cl)cc3)nc3ccc(-c4ccccc4)cn23)CC1 [Compound 128]	+++ (pIC50 ≧ 6.00)
COc1cccc(C(=O)N2CCN(Cc3c(-c4ccc(Cl)cc4)nc4ccc(-c5ccccc5)cn34)CC2)c1 [Compound 129]	+++ (pIC50 ≧ 6.00)
O=C1CN(Cc2c(-c3ccc(Cl)cc3)nc3ccc(-c4ccccc4)cn23)CCN1 [Compound 130]	++ (pIC50 5.00-5.99)
O=C(C1CC1)N1CCN(Cc2c(-c3ccc(Cl)cc3)nc3ccc(-c4ccccc4)cn23)CC1 [Compound 133]	+++ (pIC50 ≧ 6.00)
O=C1CN(Cc2c(-c3ccc(Cl)cc3)nc3ccc(-c4ccccc4)cn23)CCN1Cc1ccccc1 [Compound 134]	++ (pIC50 5.00-5.99)
c1ccc(-c2ccc3nc(-c4cccnc4)c(CN4CCOCC4)n3c2)cc1 [Compound 139]	+ (pIC50 4.00-4.99)
O=C(c1ccccn1)N1CCN(Cc2c(-c3ccc(Cl)cc3)nc3ccc(-c4ccccc4)cn23)CC1 [Compound 144]	+++ (pIC50 ≧ 6.00)
O=C(c1cccnc1)N1CCN(Cc2c(-c3ccc(Cl)cc3)nc3ccc(-c4ccccc4)cn23)CC1 [Compound 145]	+++ (pIC50 ≧ 6.00)
O=C(c1ccncc1)N1CCN(Cc2c(-c3ccc(Cl)cc3)nc3ccc(-c4ccccc4)cn23)CC1 [Compound 152]	+++ (pIC50 ≧ 6.00)
FC(F)(F)Oc1ccccc1-c1ccc2nc(-c3ccc(Cl)cc3)c(CN3CCOCC3)n2c1 [Compound 153]	+− (pIC50 < 4.00)
COc1ccc2nc(-c3ccc(Cl)cc3)c(CN3CCOCC3)n2c1 [Compound 154]	+ (pIC50 4.00-4.99)
Cc1ccc(-c2nc3ccc(-c4ccccc4)cn3c2CN2CCOCC2)cc1 [Compound 157]	++ (pIC50 5.00-5.99)
Clc1ccc(-c2nc3ccc(Oc4ccccc4)cn3c2CN2CCOCC2)cc1 [Compound 158]	+ (pIC50 4.00-4.99)
O=C(c1cscn1)N1CCN(Cc2c(-c3ccc(Cl)cc3)nc3ccc(-c4ccccc4)cn23)CC1 [Compound 159]	+++ (pIC50 ≧ 6.00)
O=C1CCCN1c1ccc2nc(-c3ccc(Cl)cc3)c(CN3CCOCC3)n2c1 [Compound 162]	+ (pIC50 4.00-4.99)
CCOC(=O)c1ccc2nc(-c3ccc(Cl)cc3)c(CN3CCOCC3)n2c1 [Compound 163]	+ (pIC50 4.00-4.99)
O=C(c1ccc(F)cc1)N1CCN(Cc2c(-c3ccc(Cl)cc3)nc3cnc(-c4ccccc4)cn23)CC1 [Compound 168]	+++ (pIC50 ≧ 6.00)

Source: US20160120863A1, “SLC2A TRANSPORTER INHIBITORS” (IOMET PHARMA LTD., priority 2013, published 2016)
